{"source": "paper PMC5389743", "about": "(Investigative Ophthalmology & Visual Science, 2017)", "origin": "cited, not measured here", "key": {"[1]": {"test_system": "α-chymotrypsin–induced rabbit glaucoma model", "conditions": "0.4% Δ^8-THC submicron emulsion, ocular hypertensive rabbits"}, "[2]": {"test_system": "normotensive rabbits", "conditions": "0.4% Δ^8-THC submicron emulsion, after 2 hours"}}, "data": [{"smiles": "CCCCCc1cc(O)c2c(c1)OC(C)(C)[C@@H]1CC=C(C)C[C@@H]21", "note": "[Δ^8-THC]", "values": [{"measurement": "Drop of IOP", "setting": "[1]", "result": "6.5 mm of Hg"}, {"measurement": "Difference between the IOP with and without treatment", "setting": "[2]", "result": "2 mm of Hg"}]}]}
